PubChem BioAssay (NCI)
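Cultured in 96-well plates, cells were exposed to test compound for 48 hours across five concentrations. The concentration for 50% growth inhibition is given as GI50. TGI marks complete inhibition of growth.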

Columns and labels:
Experiment in all cases: inhibition of tumour cell growth, NCI panel, 48 h; in the data active = GI50 below about 0.43 µM; inactive = the rest
786-0 renal = tested on: 786-0 renal
A498 renal = tested on: A498 renal
A549 NSCLC = tested on: A549 NSCLC
ACHN renal = tested on: ACHN renal
BT-549 breast = tested on: BT-549 breast
CAKI-1 renal = tested on: CAKI-1 renal
CCRF-CEM leukemia = tested on: CCRF-CEM leukemia
COLO 205 colon = tested on: COLO 205 colon
DU-145 prostate = tested on: DU-145 prostate
EKVX NSCLC = tested on: EKVX NSCLC
HCC-2998 colon = tested on: HCC-2998 colon
HCT-116 colon = tested on: HCT-116 colon
HCT-15 colon = tested on: HCT-15 colon
HL-60(TB) leukemia = tested on: HL-60(TB) leukemia
HOP-62 NSCLC = tested on: HOP-62 NSCLC
HOP-92 NSCLC = tested on: HOP-92 NSCLC
HS 578T breast = tested on: HS 578T breast
HT29 colon = tested on: HT29 colon
K-562 leukemia = tested on: K-562 leukemia
KM12 colon = tested on: KM12 colon
LOX IMVI melanoma = tested on: LOX IMVI melanoma
M14 melanoma = tested on: M14 melanoma
MCF7 breast = tested on: MCF7 breast
MOLT-4 leukemia = tested on: MOLT-4 leukemia
NCI-H226 lung = tested on: NCI-H226 lung
NCI-H23 lung = tested on: NCI-H23 lung
NCI-H460 lung = tested on: NCI-H460 lung
NCI-H522 lung = tested on: NCI-H522 lung
NCI/ADR-RES ovarian = tested on: NCI/ADR-RES ovarian
OVCAR-3 ovarian = tested on: OVCAR-3 ovarian
OVCAR-4 ovarian = tested on: OVCAR-4 ovarian
OVCAR-5 ovarian = tested on: OVCAR-5 ovarian
OVCAR-8 ovarian = tested on: OVCAR-8 ovarian
PC-3 prostate = tested on: PC-3 prostate
RXF 393 renal = tested on: RXF 393 renal
SF-268 CNS = tested on: SF-268 CNS
SF-295 CNS = tested on: SF-295 CNS
SF-539 CNS = tested on: SF-539 CNS
SK-MEL-2 melanoma = tested on: SK-MEL-2 melanoma
SK-MEL-28 melanoma = tested on: SK-MEL-28 melanoma
SK-MEL-5 melanoma = tested on: SK-MEL-5 melanoma
SK-OV-3 ovarian = tested on: SK-OV-3 ovarian
SN12C renal = tested on: SN12C renal
SNB-19 CNS = tested on: SNB-19 CNS
SNB-75 CNS = tested on: SNB-75 CNS
SR leukemia = tested on: SR leukemia
SW-620 colon = tested on: SW-620 colon
T-47D breast = tested on: T-47D breast
TK-10 renal = tested on: TK-10 renal
U251 CNS = tested on: U251 CNS
UACC-257 melanoma = tested on: UACC-257 melanoma
UACC-62 melanoma = tested on: UACC-62 melanoma
UO-31 renal = tested on: UO-31 renal
IGROV1 ovarian = tested on: IGROV1 ovarian
MDA-MB-231 breast = tested on: MDA-MB-231 breast
MDA-MB-435 = tested on: MDA-MB-435
RPMI-8226 leukemia = tested on: RPMI-8226 leukemia

Cc1cn2c(/C=C3/C(=O)Nc4c3ccc3ccccc43)c(C(F)(F)F)nc2s1
5.07 µM: TGI (SF-539 CNS)
32.4 µM: TGI (HL-60(TB) leukemia)
active: GI50 (COLO 205 colon) 0.398 µM | GI50 (HT29 colon) 0.396 µM | GI50 (OVCAR-3 ovarian) 0.381 µM | GI50 (SR leukemia) 0.238 µM
39 µM: TGI (786-0 renal)
69.3 µM: TGI (SK-OV-3 ovarian)
10.2 µM: TGI (OVCAR-3 ovarian)
38.5 µM: TGI (KM12 colon)
14.1 µM: TGI (K-562 leukemia)
93.1 µM: TGI (HOP-62 NSCLC)
26.4 µM: TGI (SR leukemia)
1.9 µM: TGI (COLO 205 colon)
> 100 µM: TGI (A498 renal) | TGI (A549 NSCLC) | TGI (ACHN renal) | TGI (BT-549 breast) | TGI (CAKI-1 renal) | TGI (DU-145 prostate) | TGI (EKVX NSCLC) | TGI (HCC-2998 colon) | TGI (HCT-116 colon) | TGI (HCT-15 colon) | TGI (MCF7 breast) | TGI (MOLT-4 leukemia) | TGI (NCI-H226 lung) | TGI (NCI-H23 lung) | TGI (NCI-H522 lung) | TGI (NCI/ADR-RES ovarian) | TGI (OVCAR-4 ovarian) | TGI (OVCAR-5 ovarian) | TGI (OVCAR-8 ovarian) | TGI (PC-3 prostate) | TGI (SF-268 CNS) | TGI (SF-295 CNS) | TGI (SK-MEL-2 melanoma) | TGI (SK-MEL-28 melanoma) | TGI (SK-MEL-5 melanoma) | TGI (SN12C renal) | TGI (SNB-19 CNS) | TGI (SNB-75 CNS) | TGI (SW-620 colon) | TGI (T-47D breast) | TGI (TK-10 renal) | TGI (U251 CNS) | TGI (UACC-257 melanoma) | TGI (UACC-62 melanoma) | TGI (UO-31 renal)
14.2 µM: TGI (HT29 colon)
25.3 µM: TGI (NCI-H460 lung)
78.7 µM: TGI (HS 578T breast)
11.7 µM: TGI (M14 melanoma)
21.1 µM: TGI (LOX IMVI melanoma)
98.7 µM: TGI (HOP-92 NSCLC)
39.8 µM: TGI (CCRF-CEM leukemia)
8.35 µM: TGI (RXF 393 renal)
inactive: GI50 (786-0 renal) 1.49 µM | GI50 (A498 renal) 1.7 µM | GI50 (A549 NSCLC) 1.18 µM | GI50 (ACHN renal) 6.24 µM | GI50 (BT-549 breast) 1.18 µM | GI50 (CAKI-1 renal) 1.76 µM | GI50 (CCRF-CEM leukemia) 2.33 µM | GI50 (DU-145 prostate) 1.67 µM | GI50 (EKVX NSCLC) 4.23 µM | GI50 (HCC-2998 colon) 3.23 µM | GI50 (HCT-116 colon) 2.19 µM | GI50 (HCT-15 colon) 0.618 µM | GI50 (HL-60(TB) leukemia) 0.54 µM | GI50 (HOP-62 NSCLC) 0.586 µM | GI50 (HOP-92 NSCLC) 5.1 µM | GI50 (HS 578T breast) 3 µM | GI50 (K-562 leukemia) 0.483 µM | GI50 (KM12 colon) 0.493 µM | GI50 (LOX IMVI melanoma) 1.07 µM | GI50 (M14 melanoma) 0.526 µM | GI50 (MCF7 breast) 0.449 µM | GI50 (MOLT-4 leukemia) 2.7 µM | GI50 (NCI-H226 lung) 17.9 µM | GI50 (NCI-H23 lung) 2.09 µM | GI50 (NCI-H460 lung) 0.501 µM | GI50 (NCI-H522 lung) 0.584 µM | GI50 (NCI/ADR-RES ovarian) 0.456 µM | GI50 (OVCAR-4 ovarian) 3.63 µM | GI50 (OVCAR-5 ovarian) 9.99 µM | GI50 (OVCAR-8 ovarian) 4.65 µM | GI50 (PC-3 prostate) 1.24 µM | GI50 (RXF 393 renal) 2.24 µM | GI50 (SF-268 CNS) 3.22 µM | GI50 (SF-295 CNS) 0.494 µM | GI50 (SF-539 CNS) 1.14 µM | GI50 (SK-MEL-2 melanoma) 1.06 µM | GI50 (SK-MEL-28 melanoma) 2.7 µM | GI50 (SK-MEL-5 melanoma) 1.03 µM | GI50 (SK-OV-3 ovarian) 1.25 µM | GI50 (SN12C renal) 4.75 µM | GI50 (SNB-19 CNS) 2.97 µM | GI50 (SNB-75 CNS) 0.582 µM | GI50 (SW-620 colon) 0.965 µM | GI50 (T-47D breast) 2.88 µM | GI50 (TK-10 renal) 12.6 µM | GI50 (U251 CNS) 2.12 µM | GI50 (UACC-257 melanoma) > 100 µM | GI50 (UACC-62 melanoma) 0.627 µM | GI50 (UO-31 renal) 1.97 µM

Nc1nc(Cl)cc(OCC2(CO)CCC2)n1
inactive: GI50 (EKVX NSCLC) 60.6 µM | GI50 (HOP-92 NSCLC) 51.3 µM | GI50 (SNB-75 CNS) 68.4 µM

NCCCN(CCCCN(CCCN)C(=O)OCc1ccccc1)C(=O)OCc1ccccc1
85.4 µM: TGI (NCI-H522 lung)
93.7 µM: TGI (MDA-MB-231 breast)
77.7 µM: TGI (MCF7 breast)
> 100 µM: TGI (786-0 renal) | TGI (A498 renal) | TGI (A549 NSCLC) | TGI (ACHN renal) | TGI (BT-549 breast) | TGI (CAKI-1 renal) | TGI (CCRF-CEM leukemia) | TGI (COLO 205 colon) | TGI (DU-145 prostate) | TGI (EKVX NSCLC) | TGI (HCC-2998 colon) | TGI (HCT-116 colon) | TGI (HCT-15 colon) | TGI (HL-60(TB) leukemia) | TGI (HOP-62 NSCLC) | TGI (HOP-92 NSCLC) | TGI (HS 578T breast) | TGI (HT29 colon) | TGI (IGROV1 ovarian) | TGI (K-562 leukemia) | TGI (KM12 colon) | TGI (LOX IMVI melanoma) | TGI (M14 melanoma) | TGI (MDA-MB-435) | TGI (MOLT-4 leukemia) | TGI (NCI-H226 lung) | TGI (NCI-H23 lung) | TGI (NCI-H460 lung) | TGI (NCI/ADR-RES ovarian) | TGI (OVCAR-3 ovarian) | TGI (OVCAR-4 ovarian) | TGI (OVCAR-5 ovarian) | TGI (OVCAR-8 ovarian) | TGI (PC-3 prostate) | TGI (RPMI-8226 leukemia) | TGI (RXF 393 renal) | TGI (SF-268 CNS) | TGI (SF-295 CNS) | TGI (SF-539 CNS) | TGI (SK-MEL-2 melanoma) | TGI (SK-MEL-28 melanoma) | TGI (SK-MEL-5 melanoma) | TGI (SK-OV-3 ovarian) | TGI (SN12C renal) | TGI (SNB-19 CNS) | TGI (SNB-75 CNS) | TGI (SW-620 colon) | TGI (T-47D breast) | TGI (TK-10 renal) | TGI (U251 CNS) | TGI (UACC-257 melanoma) | TGI (UACC-62 melanoma) | TGI (UO-31 renal)
